Where a name gives a salt, the structure may show the parent alone.
Biological target: T1, cholinesterase (Rattus norvegicus, UniProt P37136)
T1 construct: The S1 fraction of a cerebral cortex homogenate from male Wistar rats; from tissue; host or cells: cerebral cortex homogenate (S1 fraction), male Wistar rats
Test: anticholinesterase activity using (acetyl-[3H])-acetylcholine, S1 fraction of rat cerebral cortex homogenate
Type: biochemical, male Wistar rats
Conditions: (acetyl-[3H])-acetylcholine substrate, 30 minutes incubation
Method: The anticholinesterase activity of the compound of the invention was evaluated using (acetyl-[^3 H])-acetylcholine. The S1 fraction of a cerebral cortex homogenate from male Wistar rats was used as the cholinesterase source, (acetyl-[^3 H])-acetylcholine as the substrate and the test compound of the invention as the test substance. The incubation was carried out for 30 minutes and after the reaction was terminated, the system was shaken with a toluene scintillator to thereby transfer [^3 H]-acetic acid into the toluene layer. The radioactivity in the toluene layer was then measured with a liquid scintillation counter to estimate the anticholinesterase activity of the test compound.
The anticholinesterase activity of the test compound was expressed in 50% inhibitory concentration (IC50).

T1 sequence (P37136 32-614): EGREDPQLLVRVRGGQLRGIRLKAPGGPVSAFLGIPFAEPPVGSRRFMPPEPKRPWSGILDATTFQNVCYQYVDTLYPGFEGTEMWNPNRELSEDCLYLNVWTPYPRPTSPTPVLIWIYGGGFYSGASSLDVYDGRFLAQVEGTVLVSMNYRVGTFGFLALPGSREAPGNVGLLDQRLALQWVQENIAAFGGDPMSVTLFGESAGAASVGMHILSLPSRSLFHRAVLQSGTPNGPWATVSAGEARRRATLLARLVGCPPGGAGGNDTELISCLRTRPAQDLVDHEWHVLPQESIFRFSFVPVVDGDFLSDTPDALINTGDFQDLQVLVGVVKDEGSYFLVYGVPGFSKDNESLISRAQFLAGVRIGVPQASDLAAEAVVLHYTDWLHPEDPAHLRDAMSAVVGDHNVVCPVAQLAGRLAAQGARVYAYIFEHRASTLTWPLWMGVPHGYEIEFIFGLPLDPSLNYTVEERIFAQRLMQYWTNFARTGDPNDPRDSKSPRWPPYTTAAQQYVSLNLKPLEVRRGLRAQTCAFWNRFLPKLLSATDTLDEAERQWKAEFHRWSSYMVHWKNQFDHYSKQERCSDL

SMILES	IC50 [nM]
CCN(CCCCC1Cc2cc(OC)c(OC)cc2C1=O)Cc1ccccc1OC (stereo not shown) [Example 3-2]	20
CCN(CCCCC1Cc2cc(N3CCCC3)ccc2C1=O)Cc1ccccc1 (stereo not shown) [Example 7, 2-[4-[N-Ethyl-N-(phenylmethyl)amino]butyl]-5-pyrrolidino-1-indanone fumarate]	143
CCN(CCCCC1Cc2cc(OC)c(OC)cc2C1=O)Cc1cccc(O)c1 (stereo not shown) [Example 3-14]	630
CCN(CCCCCC1CCc2cc(OC)ccc2C1=O)Cc1ccccc1OC (stereo not shown) [Example 3-12]	130
CCN(CCCCC1Cc2cc3c(cc2C1=O)OCO3)Cc1ccccc1OC (stereo not shown) [Example 3-11]	170
CCN(CCCCCC1=Cc2cc(OC)c(OC)cc2C1)Cc1ccccc1OC [Example 5, 5,6-Dimethoxy-2-[5-[N-ethyl-N-[(2-methoxyphenyl)methyl]amino]pentyl]indene hydrochloride]	600
CCN(CCCCC1Cc2cc(OC)c(OC)cc2C1=O)Cc1ccccc1 (stereo not shown) [Example 3-3]	76
CCN(CCCCCCC1Cc2cc(OC)c(OC)cc2C1=O)Cc1ccccc1OC (stereo not shown) [Example 3-15]	100
CCN(CCCCC1Cc2cc(OC)c(OC)cc2C1=O)Cc1cccc(OC)c1 (stereo not shown) [Example 3-8]	110
CCN(CCCC1Cc2cc(OC)c(OC)cc2C1=O)Cc1cccc(O)c1 (stereo not shown) [Example 3-13]	210
CCN(CCCCCC1Cc2cc(OC)c(OC)cc2C1=O)Cc1ccccc1 (stereo not shown) [Example 3-1]	120
CCN(CCCC1Cc2cc(OC)c(OC)cc2C1=O)Cc1ccccc1OC (stereo not shown) [Example 3-4]	11
CCN(CCCCC1Cc2cc(OC)c(OC)c(OC)c2C1=O)Cc1ccccc1OC (stereo not shown) [Example 3-9]	90
CCN(CCCCC1Cc2cc(N3CCCC3)ccc2C1=O)Cc1ccccc1OC (stereo not shown) [Example 8, 2-[4-[N-Ethyl-N-[(2-methoxyphenyl)methyl]amino]butyl]-5-pyrrolidino-1-indanone fumarate]	81
CCN(CCCC1Cc2cc(OC)c(OC)cc2C1=O)Cc1ccccc1OC (stereo not shown) [Example 3-6]	14
CCN(CCCCC1Cc2cc(OC)c(OC)cc2C1=O)Cc1ccccc1OC (stereo not shown) [Example 3-7]	27
CCN(CCCCCC1Cc2cc(OC)c(OC)cc2C1O)Cc1ccccc1OC (stereo not shown) [Example 4, 1,2-Dihydro-5,6-dimethoxy-2-[5-[N-ethyl-N-[(2-methoxyphenyl)methyl]amino]pentyl]-1-hydroxyindene]	160
CCN(CCCCC1Cc2cc(OC)ccc2C1=O)Cc1ccccc1OC (stereo not shown) [Example 3-10]	110
CCN(CCC1Cc2cc(OC)c(OC)cc2C1=O)Cc1ccccc1OC (stereo not shown) [Example 3-5]	680

From US5180746A, “Aralkylamine compounds” (priority 1989, dated 1993)
